Test results as given in PubChem BioAssay (NCI).
Where “and” joins values, the source holds several entries; their conditions need not be identical. Identical values can stand only once.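 Dose response: 5 concentrations. Exposure: 48 h. Format: 96-well plates. Endpoint: linear interpolation; highest concentration if not reached. GI50 marks 50% less growth. TGI marks complete inhibition of growth.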

How the values were obtained:
Experiment in all cases: DTP human tumour cell line panel, 48 h
[1] = test system: 786-0 renal
[2] = test system: HOP-92 NSCLC
[3] = test system: HT29 colon
[4] = test system: LOX IMVI melanoma
[5] = test system: NCI-H460 lung
[6] = test system: NCI-H522 lung
[7] = test system: OVCAR-4 ovarian
[8] = test system: SK-MEL-5 melanoma
[9] = test system: SNB-75 CNS
[10] = test system: UACC-62 melanoma

Row | Structure (SMILES) | GI50 [1] | TGI [1] [µM] | GI50 [2] | TGI [2] | GI50 [3] [µM] | TGI [3] [µM] | GI50 [4] | TGI [4] | GI50 [5] [µM] | TGI [5] | GI50 [6] | TGI [6] | GI50 [7] | TGI [7] [µM] | GI50 [8] | TGI [8] | GI50 [9] | TGI [9] [µM] | GI50 [10] | TGI [10]
1 | Cc1c(C)c2c(c(C)c1NC(=O)/C=C\C(=O)O)CCC(C)(CCCC(C)CCCC(C)CCCC(C)C)O2 (configuration not stated) | 1.69 µM | 3.06 | 1.1 µM | 2.35 µM | 2.61 | 8.24 | 1.87 µM | 3.69 µM | 1.45 | 2.96 µM | 2.23 µM | 4.94 µM | 2.52 µM | 5.16 | 1.73 µM | 3.15 µM | 1.31 µM | 2.58 | 1.8 µM | 3.22 µM
2 | COC1C(O)C(C)OC(OC2C(Oc3cccc4c(O)c5c(=O)oc6ccc(C)c7c(=O)oc(c34)c5c67)OC(C)C3O[C@H](c4ccccc4)OC32)C1O (some centres not stated) | – | 7.16 | 0.0823 µM | 7.21 µM | – | 10.2 | 0.199 µM and 0.048 µM | 1.72 µM | 0.0241 | 1.43 µM | 0.284 µM and 0.262 µM | 6.78 µM | – | 9.75 | – | 1.8 µM | – | 7.65 | 0.304 µM | 1.9 µM
3 | NC(C/[N+]([O-])=N/O)C(=O)O (configuration not stated) | 1.16 µM and 9.72 µM and 4.15 µM | > 500 | > 91.7 µM and 71.4 µM and 33.4 µM | > 100 µM and 209 µM | – | > 395 | – | > 100 µM and 153 µM | – | > 78.3 µM and > 100 µM and 223 µM | 8.03 µM and 33.6 µM | > 59.6 µM and 284 µM | 23.6 µM and > 100 µM and 21.2 µM | > 449 | 1.9 µM and 8.31 µM and 1.46 µM | > 42.7 µM and > 100 µM and 114 µM | 13.4 µM and 10.2 µM and 101 µM | > 500 | 6.05 µM and 7.49 µM and 3.12 µM | > 100 µM and 81.9 µM
4 | O=C(Cc1nc2ccccc2c(=O)n1-c1c(Cl)cccc1Cl)c1ccncc1 | – | 88.9 | – | 69.8 µM | – | 45.8 | – | > 10 µM | – | 52.2 µM | – | 49.5 µM | – | 80.7 | – | 29.4 µM | – | 68.2 | – | 56.6 µM
5 | O=C(/C=C1\C(=O)N(Cc2ccc([N+](=O)[O-])cc2)c2ccccc21)c1ccc(OCCN2CCCCC2)cc1 | 1.29 µM | 2.61 | 1.07 µM | 2.37 µM | 1.4 | 2.88 | 1.4 µM | 2.78 µM | 1.87 | 3.68 µM | 0.614 µM | 1.99 µM | 1.47 µM | 2.83 | 1.67 µM | 3.04 µM | 2.22 µM | 11.3 | 1.44 µM | 2.79 µM
6 | CNC(=S)N/N=C1\CC(c2ccccc2)Oc2ccccc21 (configuration not stated) | – | > 100 | – | > 100 µM | – | > 100 | – | > 100 µM | – | > 100 µM | – | > 100 µM | – | > 100 | – | > 100 µM | – | > 100 | – | > 100 µM
7 | N#CCCN(CCC#N)C(=O)c1cccc(C(=O)N(CCC#N)CCC#N)c1 | – | > 100 | – | > 100 µM | – | 35.2 | – | 30.3 µM | – | > 64.8 µM | – | > 100 µM | – | > 100 | – | > 100 µM | – | > 59.3 | – | > 61.2 µM
8 | C=CCn1c(=O)c2cnc(Nc3ccc(N4CCN(C)CC4)cc3)nc2n1-c1ccc2c(n1)[C@@](O)(CC)CC2 | 0.271 µM | 12.2 | 0.494 µM | 30.5 µM | 0.261 | 4.49 | 1.02 µM | 9.89 µM | 1.94 | 16.7 µM | 0.221 µM | 0.888 µM | 1.89 µM | > 39.9 | 0.3 µM | 1.27 µM | 1.07 µM | 13.7 | 0.504 µM | 16.4 µM
9 | NC(N)=NS(=O)(=O)c1ccc(Nc2c3ccccc3nc3c(C(=O)N4CCN(CCO)CC4)cccc23)cc1 | – | > 100 | – | > 100 µM | – | > 100 | – | > 100 µM | – | > 100 µM | – | > 100 µM | – | > 100 | – | > 100 µM | – | > 100 | – | > 100 µM
10 | COc1cc(/C=N/Nc2ncnc3c2cnn3C(C)C)ccc1O | 10.8 µM | > 25 | 0.357 µM | 4.99 µM | 8.18 | > 25 | 3.79 µM | > 13.7 µM | 8.34 | > 25 µM | 6.78 µM | > 25 µM | 14.4 µM | > 25 | 8.1 µM | > 25 µM | 0.506 µM | 9.57 | 6.98 µM | > 20.9 µM
11 | O=C(/C=C/c1ccccc1)c1c[nH]c2ccccc2c1=O | 4.01 µM | 17.2 | 3.9 µM | 13 µM | 3.15 | 10.6 | 2.88 µM | 12 µM | 2.06 | 5.09 µM | 1.88 µM | 4.85 µM | 4.88 µM | 23.5 | 4.8 µM | 17 µM | 3.1 µM | 12 | 5.09 µM | 18.2 µM
12 | O=C1c2ccccc2NC(c2cc(Cl)cc(Cl)c2O)N1CCc1ccccn1 (configuration not stated) | – | > 100 | – | > 100 µM | – | > 100 | – | > 100 µM | – | > 100 µM | – | > 100 µM | – | 98.9 | – | > 100 µM | – | > 100 | – | > 100 µM
13 | C=C1C(=O)O[C@H]2[C@H]1CC/C(Cn1cc(CNCCc3c[nH]c4ccc(Cl)cc34)nn1)=C\CC[C@@]1(C)O[C@@H]21 | 2.89 µM | 10.2 | 1.34 µM | 3.05 µM | 3.32 | 11.2 | 3.56 µM | 16 µM | 49.1 | > 100 µM | 1.58 µM | 3.12 µM | 5.23 µM | 19.7 | 17 µM | 34.9 µM | 4.88 µM | 17.9 | 4.65 µM | 16.9 µM
14 | COc1c(C2=NC(C(C)C)CO2)ccc2ccccc12 (configuration not stated) | – | > 100 | – | > 100 µM | – | > 100 | – | > 100 µM | – | > 100 µM | – | 99.8 µM | – | > 100 | – | 36.3 µM | – | > 100 | – | > 100 µM
